Legend:
[1] = tested on: BRAF mutant (V600E) melanoma cell lines; assay: Cell growth assay in BRAF mutant (V600E) melanoma cell lines; assay type: cell-based; conditions: continuous presence of compound
Method: In a separate experiment, Compound 106 was tested in a panel of BRAF mutant (V600E) melanoma cell lines. (This set of cell lines represents 17 additional cell lines relative to FIG. 3C.) The melanoma cell lines were introduced into 96-well plates and grown in the absence or continuous presence of compound 106. IC50 values were determined as the concentration of a substance which inhibits cell growth by 50% compared to untreated cell populations.

[2] = tested on: cell lines which carried a BRAF V600E mutation; assay: Cell growth assay (CellTiter-Glo or methylene blue) in solid cancer cell lines; assay type: cell-based; conditions: 96 hours, 0.3-10000 nM
Method: In a separate experiment, Compounds 091 and 106 were tested in solid cancer cell lines from different tissue types (shown in FIG. 3B for 21 cell lines for compound 091 and 19 cell lines for compound 106). All cell lines were introduced into 96-well plates and grown in the absence or continuous presence of 0.3-10000 nM of either compound 091 or compound 106 for 96 hours. Cell growth was assessed using a CellTiter-Glo® Luminescent Cell Viability Assay (Promega) or a methylene blue assay. IC50 values were determined as the concentration of a substance which inhibits cell growth by 50% compared to untreated cell populations.

[3] = tested on: LOX human melanoma xenografts; assay: Immunohistochemistry of LOX xenografts after single dosing; assay type: in vivo, mice; conditions: single 40 mg/kg i.v.
Method: LOX human melanoma cells, which carry the V600E BRAF mutation, were originally obtained from the DCTD Tumor Repository (Frederick, Md.). The cells were grown in monolayer cultures in DCTD-recommended growth media at 37° C. in a 5% CO2 humidified incubator. On the day of subcutaneous (s.c.) injections of the cells, growth medium was removed, flasks were washed with PBS, and cells were collected with trypsinization. The cells were washed and collected by centrifugation, and then resuspended in ice-cold PBS at a concentration of 1×10^7 cells/mL. The cells (1×10^6 cells) were inoculated s.c. in female athymic NU/NU mice near the right axillary area using a 27-gauge needle with a volume of 0.1 mL, and allowed to grow. Compound 106 was administered intravenously (i.v.) on a single dosing at the dosage level of 40 mg/kg with a volume of injection 0.1 mL per 10 g body weight. Then, the mice were euthanized at different time points including 0, 1, 2, 4, 8, 12, 24, 48, 72 h after dosing. The tumor tissue was dissected and fixed with 10% formalin for immunohistochemistry.
For immunohistochemical detection of phospho-ERK 1/2, rabbit mAb 20011 was used at a final concentration of […] (Cell Signaling, Cat. No. 4376). This mAb detects endogenous levels of p44 and p42 MAP Kinase (ERK1 and ERK2) when dually phosphorylated at Thr202 and Tyr204 of ERK1 (Thr185 and […] of ERK2), and singly phosphorylated at Thr202. Conditions were essentially as described in IHC Procedure (2), with incubation overnight (18 hr) at 4° C. and EDTA retrieval buffer. Secondary reagent was goat anti-rabbit antibody, conjugated to alkaline phosphatase.
For immunohistochemical detection of phospho-RB, anti-phospho-Retinoblastoma (pSer780) antibody (Sigma, Cat. No. R6275) was used (Table 10). Conditions were as described in IHC Procedure (1), with incubation for one hour at room temperature and EDTA retrieval buffer. Secondary reagent was anti-rabbit antibody, conjugated to horseradish peroxidase.

SK-MEL-28 = assay: MTS cell growth inhibition assay; assay type: cell-based; conditions: Homo sapiens, 96 h, SK-MEL-28 melanoma, BRAF mutated, four days
Method: (§1) Cell growth inhibition following treatment with a zearalenone analog compound, Compound 106, was assessed in a panel of cancerous cell lines from different tissue types, which carry mutations in BRAF and/or RAS. A panel of 21 cell lines was tested with varying concentrations of Compound 106. All assays were performed in a 96 well format. Cell viability was assessed after four days following treatment. Cell viability was assessed with a MTS Assay (CellTiter96®AqueousOne Solution Cell Proliferation Assay, Promega) in a panel of cell lines carrying no mutations or various BRAF (V600E) and/or RAS mutations to determine the effect of BRAF and RAS genotype on drug sensitivity.

SK-MEL-3 = assay: MTS cell growth inhibition assay; assay type: cell-based; conditions: Homo sapiens, SK-MEL3, 96 h, SK-MEL-3 melanoma, BRAF mutated, four days
Method: as §1

HT-29 = assay: MTS cell growth inhibition assay; assay type: cell-based; conditions: Homo sapiens, 96 h, HT-29 colorectal, BRAF mutated, four days
Method: as §1

SK-MEL-24 = assay: MTS cell growth inhibition assay; assay type: cell-based; conditions: Homo sapiens, 96 h, SK-MEL-24 melanoma, BRAF mutated, four days
Method: as §1

DU4475 = assay: MTS cell growth inhibition assay; assay type: cell-based; conditions: Homo sapiens, DU-4475, 96 h, DU4475 breast, BRAF mutated, four days
Method: as §1

Colo-205 = assay: MTS cell growth inhibition assay; assay type: cell-based; conditions: Homo sapiens, 96 h, Colo-205 colorectal, BRAF mutated, four days
Method: as §1

MDA-MB-435 = assay: MTS cell growth inhibition assay; assay type: cell-based; conditions: Homo sapiens, 96 h, MDA-MB-435 breast, BRAF mutated, four days
Method: as §1

## CCNc1cc(O)c2c(c1)/C=C/C[C@H](O)[C@H](O)C(=O)/C=C\[C@@H](C)[C@H](C)OC2=O [Compound 106]
[1]
  Sensitivity of cell lines with BRAF mutation and wild-type PTEN status: very sensitive
[2]
  Sensitivity of BRAF V600E cell lines (concentration range): low-nM or sub-μM concentration range
[3]
  Time for phospho-ERK staining to recover to baseline levels: ≤ 24 h
[3]; 8 hour time-point
  Phospho-ERK staining (IHC): essentially no observable staining
[3]; between 24 and 48 hours, through 72 hours
  Ki67 staining (IHC): suppressed to below detection
[3]; between 48 and 72 hours
  phospho-pRB level (IHC): suppressed to below detection
SK-MEL-28
  IC50: < 100 nM
SK-MEL-3
  IC50: < 100 nM
HT-29
  IC50: < 100 nM
SK-MEL-24
  IC50: < 100 nM
DU4475
  IC50: < 100 nM
Colo-205
  IC50: < 100 nM
MDA-MB-435
  IC50: < 100 nM
